Consider 15 molecules from patent US20260356840A1, “[1,2,4]TRIAZOLO[1,5-A]PYRIMIDINONE WRN INHIBITORS” (Nimbus Wadjet, Inc., priority 2023, published 2026).

Where only a bound is given, the exact number is not on record here.

T1 sequence (Q14191 517-1235 L1074F): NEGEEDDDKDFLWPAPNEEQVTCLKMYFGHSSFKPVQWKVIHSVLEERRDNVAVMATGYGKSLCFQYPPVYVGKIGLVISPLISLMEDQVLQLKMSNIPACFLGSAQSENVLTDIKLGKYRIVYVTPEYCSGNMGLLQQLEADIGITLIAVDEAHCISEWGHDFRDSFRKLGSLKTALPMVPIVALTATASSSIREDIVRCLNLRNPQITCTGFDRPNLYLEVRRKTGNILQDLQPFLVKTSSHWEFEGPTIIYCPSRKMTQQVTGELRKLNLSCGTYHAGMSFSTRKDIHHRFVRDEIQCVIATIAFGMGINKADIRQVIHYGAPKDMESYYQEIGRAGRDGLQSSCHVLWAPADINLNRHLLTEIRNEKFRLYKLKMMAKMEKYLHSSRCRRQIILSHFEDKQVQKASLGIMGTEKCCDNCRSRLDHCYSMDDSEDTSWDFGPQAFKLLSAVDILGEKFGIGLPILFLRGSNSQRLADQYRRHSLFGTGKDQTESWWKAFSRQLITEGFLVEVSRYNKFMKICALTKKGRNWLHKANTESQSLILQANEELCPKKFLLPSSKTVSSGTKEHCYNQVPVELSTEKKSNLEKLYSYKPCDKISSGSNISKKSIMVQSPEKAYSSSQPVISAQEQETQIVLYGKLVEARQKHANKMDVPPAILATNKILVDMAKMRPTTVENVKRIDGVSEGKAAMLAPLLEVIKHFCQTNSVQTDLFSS

The assay concerns the target T1, human Werner helicase (Uniprot Q14191, amino acids 517-1235 with L1074F point mutation), WRN-BV08 (Homo sapiens, UniProt Q14191, L1074F).
T1 construct: Uniprot Q14191, amino acids 517-1235 with L1074F point mutation; TEV cleavable 8xHis tag (C, cleaved yes); made in house; host or cells: Sf9 insect cells (baculovirus, pFastBac)
Kind of assay: WRN (BV08) ADP-Glo Assay. The assay is classed as biochemical.
In the case of `CCc1c(N2CCN(C(=O)c3c(O)cncc3F)CC2)c(=O)n2nc(C3=CCOCC3)nc2n1CC(=O)Nc1ccc(C(F)(F)F)cc1Cl` [Compound I-9, N-[2-chloro-4-(trifluoromethyl)phenyl]-2-[2-(3,6-dihydro-2H-pyran-4-yl)-5-ethyl-6-[4-(3-fluoro-5-hydroxypyridine-4-carbonyl)piperazin-1-yl]-7-oxo-4H,7H-[1,2,4]triazolo[1,5-a]pyrimidin-4-yl]acetamide], the IC50 is 5 to 50 nM.
As for `CCc1c(N2CCN(C(=O)c3sc(C(F)(F)F)cc3O)CC2)c(=O)n2nc(C3=CCOCC3)nc2n1CC(=O)Nc1ccc(C(F)(F)F)cc1Cl` [Compound I-7, N-[2-chloro-4-(trifluoromethyl)phenyl]-2-[2-(3,6-dihydro-2H-pyran-4-yl)-5-ethyl-6-{4-[3-hydroxy-5-(trifluoromethyl)thiophene-2-carbonyl]piperazin-1-yl}-7-oxo-4H,7H-[1,2,4]triazolo[1,5-a]pyrimidin-4-yl]acetamide], the IC50 is 5 to 50 nM.
For `CCc1c(N2CCN(C(=O)c3cnn(C)c3)CC2)c(=O)n2nc(-c3ccnc(OC)c3)nc2n1CC(=O)Nc1ccc(C(F)(F)F)cc1Cl` [Compound I-48, N-[2-chloro-4-(trifluoromethyl)phenyl]-2-[5-ethyl-2-(2-methoxypyridin-4-yl)-6-[4-(1-methyl-1H-pyrazole-4-carbonyl)piperazin-1-yl]-7-oxo-4H,7H-[1,2,4]triazolo[1,5-a]pyrimidin-4-yl]acetamide], the concentration for half-maximal inhibition (IC50) is less than 5 nM.
For `CCc1c(N2CCN(C(=O)c3ncnn3C)CC2)c(=O)n2nc(-c3ccnc(OC)c3)nc2n1CC(=O)Nc1ccc(C(F)(F)F)cc1Cl` [Compound I-79, N-[2-chloro-4-(trifluoromethyl)phenyl]-2-[5-ethyl-2-(2-methoxypyridin-4-yl)-6-[4-(1-methyl-1H-1,2,4-triazole-5-carbonyl)piperazin-1-yl]-7-oxo-4H,7H-[1,2,4]triazolo[1,5-a]pyrimidin-4-yl]acetamide] the value was 5 to 50 nM; for `CCc1c(N2CCN(C(=O)c3cc(C)no3)CC2)c(=O)n2nc(-c3ccnc(OC)c3)nc2n1CC(=O)Nc1ccc(C(F)(F)F)cc1Cl` [Compound I-65, N-[2-chloro-4-(trifluoromethyl)phenyl]-2-[5-ethyl-2-(2-methoxypyridin-4-yl)-6-[4-(3-methyl-1,2-oxazole-5-carbonyl)piperazin-1-yl]-7-oxo-4H,7H-[1,2,4]triazolo[1,5-a]pyrimidin-4-yl]acetamide], 5 to 50 nM.
On to `CCc1c(N2CCN(C(=O)c3ncc4c(c3O)CCO4)CC2)c(=O)n2nc(C3=CCOCC3)nc2n1CC(=O)Nc1ccc(C(F)(F)F)cc1Cl` [Compound I-84, N-[2-chloro-4-(trifluoromethyl)phenyl]-2-[2-(3,6-dihydro-2H-pyran-4-yl)-5-ethyl-6-(4-{4-hydroxy-2H,3H-furo[2,3-c]pyridine-5-carbonyl}piperazin-1-yl)-7-oxo-4H,7H-[1,2,4]triazolo[1,5-a]pyrimidin-4-yl]acetamide], for which the IC50 was less than 5 nM.
Molecule `CCc1c(N2CCN(C(=O)c3noc(C)n3)CC2)c(=O)n2nc(-c3ccnc(OC)c3)nc2n1CC(=O)Nc1ccc(C(F)(F)F)cc1Cl` [Compound I-78, N-[2-chloro-4-(trifluoromethyl)phenyl]-2-[5-ethyl-2-(2-methoxypyridin-4-yl)-6-[4-(5-methyl-1,2,4-oxadiazole-3-carbonyl)piperazin-1-yl]-7-oxo-4H,7H-[1,2,4]triazolo[1,5-a]pyrimidin-4-yl]acetamide] registered an IC50 of 5 to 50 nM.
As for `CCc1c(N2CCN(C(=O)c3nsnc3O)CC2)c(=O)n2nc(C3=CCOCC3)nc2n1CC(=O)Nc1ccc(C(F)(F)F)cc1Cl` [Compound I-27, N-[2-chloro-4-(trifluoromethyl)phenyl]-2-[2-(3,6-dihydro-2H-pyran-4-yl)-5-ethyl-6-[4-(4-hydroxy-1,2,5-thiadiazole-3-carbonyl)piperazin-1-yl]-7-oxo-4H,7H-[1,2,4]triazolo[1,5-a]pyrimidin-4-yl]acetamide], the IC50 is 5 to 50 nM.
`CCc1c(N2CCN(C(=O)c3nn(C)cc3O)CC2)c(=O)n2nc(-c3ccnc(OC)c3)nc2n1CC(=O)Nc1ccc(C(F)(F)F)cc1Cl` [Compound I-35, N-[2-chloro-4-(trifluoromethyl)phenyl]-2-{5-ethyl-6-[4-(4-hydroxy-1-methyl-1H-pyrazole-3-carbonyl)piperazin-1-yl]-2-(2-methoxypyridin-4-yl)-7-oxo-4H,7H-[1,2,4]triazolo[1,5-a]pyrimidin-4-yl}acetamide] registered an IC50 of 5 to 50 nM.
In turn, `CCc1c(N2CCN(C(=O)CCO)CC2)c(=O)n2nc(C3=CCOCC3)nc2n1CC(=O)Nc1ccc(C(F)(F)F)cc1Cl` [Compound I-24, N-[2-chloro-4-(trifluoromethyl)phenyl]-2-[2-(3,6-dihydro-2H-pyran-4-yl)-5-ethyl-6-[4-(3-hydroxypropanoyl)piperazin-1-yl]-7-oxo-4H,7H-[1,2,4]triazolo[1,5-a]pyrimidin-4-yl]acetamide] gave an IC50 of 5 to 50 nM.
For `CCc1c(N2CCN(C(=O)[C@H]3C[C@@H](O)C3)CC2)c(=O)n2nc(C3=CCOCC3)nc2n1CC(=O)Nc1ccc(C(F)(F)F)cc1Cl` [Compound I-39, N-[2-chloro-4-(trifluoromethyl)phenyl]-2-[2-(3,6-dihydro-2H-pyran-4-yl)-5-ethyl-7-oxo-6-{4-[(1s,3s)-3-hydroxycyclobutanecarbonyl]piperazin-1-yl}-4H,7H-[1,2,4]triazolo[1,5-a]pyrimidin-4-yl]acetamide] the value was 5 to 50 nM; for `CCc1c(N2CCN(C(=O)c3ncnc(C)c3O)CC2)c(=O)n2nc(-c3ccnc(OC)c3F)nc2n1CC(=O)Nc1ccc(C(F)(F)F)cc1Cl` [Compound I-45, N-[2-chloro-4-(trifluoromethyl)phenyl]-2-[5-ethyl-2-(3-fluoro-2-methoxypyridin-4-yl)-6-[4-(5-hydroxy-6-methylpyrimidine-4-carbonyl)piperazin-1-yl]-7-oxo-4H,7H-[1,2,4]triazolo[1,5-a]pyrimidin-4-yl]acetamide], 5 to 50 nM; for `CCc1c(N2CCN(C(=O)C(C)(C)C#N)CC2)c(=O)n2nc(C3=CCOCC3)nc2n1CC(=O)Nc1ccc(C(F)(F)F)cc1Cl` [Compound I-31, N-[2-chloro-4-(trifluoromethyl)phenyl]-2-{6-[4-(2-cyano-2,2-dimethylacetyl)piperazin-1-yl]-2-(3,6-dihydro-2H-pyran-4-yl)-5-ethyl-7-oxo-4H,7H-[1,2,4]triazolo[1,5-a]pyrimidin-4-yl}acetamide], 50 to 100 nM.
`CCc1c(N2CCN(C(=O)c3cccc4cccnc34)CC2)c(=O)n2nc(C3=CCOCC3)nc2n1CC(=O)Nc1ccc(C(F)(F)F)cc1Cl` [Compound I-19, N-[2-chloro-4-(trifluoromethyl)phenyl]-2-[2-(3,6-dihydro-2H-pyran-4-yl)-5-ethyl-7-oxo-6-[4-(quinoline-8-carbonyl)piperazin-1-yl]-4H,7H-[1,2,4]triazolo[1,5-a]pyrimidin-4-yl]acetamide]: the IC50 was in the range of 5 to 50 nM.
`CCc1c(N2CCN(C(=O)c3ncnc(C)c3O)CC2)c(=O)n2nc(-c3ccnc(OC(F)F)c3)nc2n1CC(=O)Nc1ccc(C(F)(F)F)cc1Cl` [Compound I-44, N-[2-chloro-4-(trifluoromethyl)phenyl]-2-{2-[2-(difluoromethoxy)pyridin-4-yl]-5-ethyl-6-[4-(5-hydroxy-6-methylpyrimidine-4-carbonyl)piperazin-1-yl]-7-oxo-4H,7H-[1,2,4]triazolo[1,5-a]pyrimidin-4-yl}acetamide] yielded an IC50 of 5 to 50 nM.

In general, IC50 refers to the concentration that gives 50% inhibition. Read a high IC50 as weaker potency in that assay.
